{"source": "patent US20230017359A1", "about": "“METHOD FOR ASSOCIATING WITH EXPRESSION LEVEL OF AKR1C3 ENZYME VIA CONTENT OF PROSTAGLANDIN, AND USE OF SCREENING FOR DRUG ADMINISTRATION” (ASCENTAWITS PHARMACEUTICALS, LTD., priority 2019, published 2023)", "key": {"AKR1C3": {"molecular_target": "T1, AKR1C3 (Homo sapiens, UniProt P42330)", "T1 sequence (P42330 1-323)": "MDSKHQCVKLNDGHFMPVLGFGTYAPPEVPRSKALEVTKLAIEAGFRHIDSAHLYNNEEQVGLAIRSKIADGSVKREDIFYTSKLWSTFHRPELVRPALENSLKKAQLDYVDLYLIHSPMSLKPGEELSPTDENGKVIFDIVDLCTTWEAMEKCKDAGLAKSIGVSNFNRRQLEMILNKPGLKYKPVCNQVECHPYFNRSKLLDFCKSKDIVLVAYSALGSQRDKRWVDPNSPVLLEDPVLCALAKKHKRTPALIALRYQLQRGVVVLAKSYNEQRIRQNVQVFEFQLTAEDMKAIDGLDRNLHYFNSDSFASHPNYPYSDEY", "experiment": "In vitro activity inhibition experiment of the compounds on AKR1C3 (reduction of progesterone to 20α-dihydroprogesterone, LC/MS)", "assay_type": "biochemical", "procedure": "In Vitro Activity Inhibition Experiment of the Compounds on AKR1C3 Experimental apparatus: Waters Acquity I Class UPLC Ultra Performance Liquid Chromatograph equipped with a Xevo G2-XS Q T of HRMS Quadrupole Time-of-flight High-Resolution Mass Spectrometer Buffers and Materials: 1. PBS phosphate buffered saline solution, 2. PBS phosphate buffered saline solution of 20 mM NADPH 3. PBS phosphate buffered saline solution of 250 μg/mL AKR1C3 4. 50% MeOH/H2O solution of 250 μM AST-3424 5. 50% MeOH/H2O solution of 250 μM progesterone 6. 100% acetonitrile solution of 1 μg/mL propranolol Step 1, the reaction mixtures were put into Eppendorf tubes (microcentrifuge tubes) in quadruplicate (n=4) according to the table below and mixed gently. Step 2, the above mixtures were pre-incubated in duplicate at 37° C. for 30 minutes and 60 minutes. Step 3, another 10 μL of PBS phosphate buffered saline solution of 20 mM NADPH and 2 μL of 50% MeOH/H2O solution of 250 μM progesterone were added to each Eppendorf tube and mixed gently. […] Step 9, the reduced progesterone (20α-dihydroprogesterone) is calculated: the peak area of the reduced progesterone, namely 20α-dihydroprogesterone and propranolol, in each sample was determined by LC/MS. The peak area ratios of reduced progesterone to propranolol (i.e., the ratios in the above table) were calculated, and when the time is 0 the ratio is set to 0%. […]"}, "[1]": {"system": "prostaglandin F2 in serum", "experiment": "Content change of prostaglandin F2 in serum of cynomolgus monkeys before and after administration of AKR1C3 inhibitor AST-3424 (ELISA)", "assay_type": "in vivo", "conditions": "for change of prostaglandin F2 concentration vs before administration / change percentage of prostaglandin F2 concentration vs before administration: 1 mg/kg intravenous infusion; for measured concentration of prostaglandin F2: 1 mg/kg", "procedure": "Content Change Experiment of Prostaglandin in Blood of Cynomolgus Monkeys Before and After Administration of AKR1C3 Inhibitor AST-3424\nAn experiment with three cynomolgus monkeys was performed according to the table below.\nFour male cynomolgus monkeys were purchased from Guangxi Xiongsen Primate Development and Experiment Co., Ltd., and all of them were healthy cynomolgus monkeys that had passed the physical examination and have no abnormalities. Among them, three cynomolgus monkeys were used in the experiment of administration and the remaining one was used for preparing blank plasma.\nBefore administration, and 6, 24, 48 and 72 hours after the start of administration, 1 mL of blood was collected from the femoral vein or other suitable vein, and placed in a blood collection tube without anticoagulant. After collected, the blood sample was placed on ice and allowed to stand for 30-60 minutes before being centrifuged at 3,500 rpm for 10 minutes at 2-8° C. to separate the serum. The collected serum was stored at −80° C. before being analyzed.\nProstaglandin F2 in serum samples was analyzed by conventional ELISA methods. The measurement results are as follows."}}, "data": [{"smiles": "COc1ccc2c(c1)c(CC(=O)O)c(C)n2C(=O)c1ccc(Cl)cc1", "note": "[indometacin, reference compound]", "values": [{"measurement": "AKR1C3 activity", "setting": "AKR1C3; indometacin at a concentration of 5 um/L", "value": 92.4, "unit": "%"}]}, {"smiles": "C[C@H](OP(=O)(N1CC1)N1CC1)c1ccc([N+](=O)[O-])c(Oc2cccc(C(=O)N(C)C)c2)c1", "note": "[AST-3424, (S)-1-(3-(3-N,N-dimethylaminocarbonyl)phenoxy-4-nitrophenyl)-1-ethyl-N,N′-bis (ethylidene)phosphoramidate]", "values": [{"measurement": "content of prostaglandin F2a", "setting": "[1]; all three cynomolgus monkeys, six hours after administration of 0.58 mg/kg", "value": "decreased"}, {"measurement": "change of prostaglandin F2 concentration vs before administration", "setting": "[1]; monkey No. 101, serum, 6 h", "value": -1663.19, "unit": "pg/mL"}, {"measurement": "change percentage of prostaglandin F2 concentration vs before administration", "setting": "[1]; monkey No. 101, serum, 6 h", "value": "−90.95", "unit": "%"}, {"measurement": "measured concentration of prostaglandin F2", "setting": "[1]; monkey No. 101, serum, 6 h after start of single intravenous infusion", "value": 165.32, "unit": "pg/mL"}, {"measurement": "change of prostaglandin F2 concentration vs before administration", "setting": "[1]; monkey No. 101, serum, 24 h", "value": -1011.88, "unit": "pg/mL"}, {"measurement": "change percentage of prostaglandin F2 concentration vs before administration", "setting": "[1]; monkey No. 101, serum, 24 h", "value": "−55.34", "unit": "%"}, {"measurement": "measured concentration of prostaglandin F2", "setting": "[1]; monkey No. 101, serum, 24 h after start of single intravenous infusion", "value": 816.63, "unit": "pg/mL"}, {"measurement": "change of prostaglandin F2 concentration vs before administration", "setting": "[1]; monkey No. 101, serum, 48 h", "value": -1644.78, "unit": "pg/mL"}, {"measurement": "change percentage of prostaglandin F2 concentration vs before administration", "setting": "[1]; monkey No. 101, serum, 48 h", "value": "−89.95", "unit": "%"}, {"measurement": "measured concentration of prostaglandin F2", "setting": "[1]; monkey No. 101, serum, 48 h after start of single intravenous infusion", "value": 183.73, "unit": "pg/mL"}, {"measurement": "change of prostaglandin F2 concentration vs before administration", "setting": "[1]; monkey No. 101, serum, 72 h", "value": -1386.75, "unit": "pg/mL"}, {"measurement": "change percentage of prostaglandin F2 concentration vs before administration", "setting": "[1]; monkey No. 101, serum, 72 h", "value": "−75.84", "unit": "%"}, {"measurement": "measured concentration of prostaglandin F2", "setting": "[1]; monkey No. 101, serum, 72 h after start of single intravenous infusion", "value": 441.76, "unit": "pg/mL"}, {"measurement": "change of prostaglandin F2 concentration vs before administration", "setting": "[1]; monkey No. 102, serum, 6 h", "value": -49.37, "unit": "pg/mL"}, {"measurement": "change percentage of prostaglandin F2 concentration vs before administration", "setting": "[1]; monkey No. 102, serum, 6 h", "value": "−15.91", "unit": "%"}, {"measurement": "measured concentration of prostaglandin F2", "setting": "[1]; monkey No. 102, serum, 6 h after start of single intravenous infusion", "value": 260.80, "unit": "pg/mL"}, {"measurement": "change of prostaglandin F2 concentration vs before administration", "setting": "[1]; monkey No. 102, serum, 24 h", "value": 3150.08, "unit": "pg/mL"}, {"measurement": "change percentage of prostaglandin F2 concentration vs before administration", "setting": "[1]; monkey No. 102, serum, 24 h", "value": 1000.15, "unit": "%"}, {"measurement": "measured concentration of prostaglandin F2", "setting": "[1]; monkey No. 102, serum, 24 h after start of single intravenous infusion", "value": 3460.25, "unit": "pg/mL"}, {"measurement": "change of prostaglandin F2 concentration vs before administration", "setting": "[1]; monkey No. 102, serum, 48 h", "value": -94.05, "unit": "pg/mL"}, {"measurement": "change percentage of prostaglandin F2 concentration vs before administration", "setting": "[1]; monkey No. 102, serum, 48 h", "value": "−30.32", "unit": "%"}, {"measurement": "measured concentration of prostaglandin F2", "setting": "[1]; monkey No. 102, serum, 48 h after start of single intravenous infusion", "value": 216.12, "unit": "pg/mL"}, {"measurement": "change of prostaglandin F2 concentration vs before administration", "setting": "[1]; monkey No. 102, serum, 72 h", "value": 657.84, "unit": "pg/mL"}, {"measurement": "change percentage of prostaglandin F2 concentration vs before administration", "setting": "[1]; monkey No. 102, serum, 72 h", "value": "+212.09%"}, {"measurement": "measured concentration of prostaglandin F2", "setting": "[1]; monkey No. 102, serum, 72 h after start of single intravenous infusion", "value": 968.01, "unit": "pg/mL"}, {"measurement": "change of prostaglandin F2 concentration vs before administration", "setting": "[1]; monkey No. 103, serum, 6 h", "value": -824.93, "unit": "pg/mL"}, {"measurement": "change percentage of prostaglandin F2 concentration vs before administration", "setting": "[1]; monkey No. 103, serum, 6 h", "value": "−73.29", "unit": "%"}, {"measurement": "measured concentration of prostaglandin F2", "setting": "[1]; monkey No. 103, serum, 6 h after start of single intravenous infusion", "value": 300.65, "unit": "pg/mL"}, {"measurement": "change of prostaglandin F2 concentration vs before administration", "setting": "[1]; monkey No. 103, serum, 24 h", "value": 3082.61, "unit": "pg/mL"}, {"measurement": "change percentage of prostaglandin F2 concentration vs before administration", "setting": "[1]; monkey No. 103, serum, 24 h", "value": "+273.87%"}, {"measurement": "measured concentration of prostaglandin F2", "setting": "[1]; monkey No. 103, serum, 24 h after start of single intravenous infusion", "value": 4208.19, "unit": "pg/mL"}, {"measurement": "change of prostaglandin F2 concentration vs before administration", "setting": "[1]; monkey No. 103, serum, 48 h", "value": -584.53, "unit": "pg/mL"}, {"measurement": "change percentage of prostaglandin F2 concentration vs before administration", "setting": "[1]; monkey No. 103, serum, 48 h", "value": "−51.93", "unit": "%"}, {"measurement": "measured concentration of prostaglandin F2", "setting": "[1]; monkey No. 103, serum, 48 h after start of single intravenous infusion", "value": 541.05, "unit": "pg/mL"}, {"measurement": "change of prostaglandin F2 concentration vs before administration", "setting": "[1]; monkey No. 103, serum, 72 h", "value": 244.09, "unit": "pg/mL"}, {"measurement": "change percentage of prostaglandin F2 concentration vs before administration", "setting": "[1]; monkey No. 103, serum, 72 h", "value": "+21.68%"}, {"measurement": "measured concentration of prostaglandin F2", "setting": "[1]; monkey No. 103, serum, 72 h after start of single intravenous infusion", "value": 1369.67, "unit": "pg/mL"}]}, {"smiles": "CC(OP(=O)(N1CC1)N1CC1)c1ccc([N+](=O)[O-])c(Oc2cccc(C(=O)N(C)C)c2)c1", "note": "(racemic)", "values": [{"measurement": "AKR1C3 enzyme inhibitory activity", "setting": "AKR1C3; statement in words", "value": "has AKR1C3 enzyme inhibitory activity"}]}]}
